Article PMC11649784, “Re-design and evaluation of diclofenac-based carborane-substituted prodrugs and their anti-cancer potential” (Scientific Reports, 2024)

Columns and labels:
[1] = system: MC38 cells; assay: MTT viability assay, MC38; type: cell-based, murine; details: 72 h, mean±SD; read-out: IC50 [μM] (n = 3) MC38 MTT
Description: (§1) In a preliminary test, the stability of all compounds dissolved in the cell medium (c = 100 μM, T = [drawing 47] ) for 72 h was validated by HPLC (see Supporting Information). Cell lines were incubated with the respective compounds in a concentration range of 1.56–100 μM for 72 h, and cell viability was measured using 3-(4,5-dimethylthiazol-2-yl)-2,5-diphenyltetrazolium bromide (MTT) and crystal violet (CV) assays. […] As MTT tests gave inconsistent results, possibly due to interference of the compound with mitochondrial respiration, for the further evaluation only the CV results are considered[97],[98].
(§2) The biological study was performed on a murine colon adenocarcinoma cell line (MC38), two human colorectal carcinoma cell lines (HCT116 and HT29), and a human fetal lung fibroblast cell line (MRC-5). All cell lines are commercially available and were obtained from the American Type Culture Collection (ATCC). The human cell lines were kept in HEPES-buffered RPMI-1640 medium supplemented with 10 [drawing 141] heat-inactivated FCS, 2 mM L-glutamine, 0.01 [drawing 142] sodium pyruvate, penicillin (100 units mL^−1), and, streptomycin ( [drawing 143] mL^-1). The MC38 cell line was maintained in DMEM medium additionally supplemented with 1 [drawing 144] non-essential amino acids. Cells were grown at [drawing 145] in a humidified atmosphere with 5 [drawing 146] [drawing 147] . Peritoneal exudate cells (PECs) were isolated from healthy C57BL/6 mice (males, n = 3, 3 months old, weight 22–25 g) by performing an ice-cold PBS peritoneal lavage. Mice were sacrificed by cervical dislocation. Cells were cultivated for 4 h when nonadherent population was removed by washing in PBS, and additionally cultivated overnight in HEPES-buffered RPMI-1640 medium supplemented with 5 [drawing 148] heat-inactivated FCS before treatment with experimental drugs. Animal handling and protocol for isolation of PECs were performed according to European Union rules, and the ARRIVE guidelines 2.0.
(§3) For the viability tests, MC38, HCT116, and HT29 cells were seeded in 96-well plates at a density of 2 [drawing 149] 103, 5 [drawing 150] 103, and 6 [drawing 151] 10^3 cells/well, respectively. To determine whether the drug affected the viability of healthy, non-malignant cells, MRC-5 and PECs were seeded in 96-well plates at a density of 8 [drawing 152] 103 and 2 [drawing 153] 10^5 cells/well, respectively. For the flow cytometric analyses, MC38 cells were seeded in 6-well plates at 5 [drawing 154] 10^4 cells/well. For morphological assessment of nuclei and the detection of autophagy, MC38 cells were seeded in 2-well chamber slides at 1.5 [drawing 155] 10^4 cells/well.
(§4) After 72 h, cell viability was determined using MTT and CV tests. First, the supernatant from the wells was discarded and the cells were incubated with an MTT solution (0.5 mg mL^−1). After half an hour, the purple formazan crystals formed were dissolved in DMSO. For CV staining of the cells, the cells were fixed with 4 [drawing 157] PFA for 10 min and then stained with a 0.02 [drawing 158] CV solution for 15 min, all at room temperature (RT). The cells were then washed with tap water, air-dried and the dye was dissolved in 33 [drawing 159] acetic acid. For both viability tests, the absorbance of the developed colors was measured using an automated microplate reader at 570 nm with a reference wavelength of 670 nm. The results were expressed as a percentage of the control values of the untreated cells, which were arbitrarily set at 100 [drawing 160] . IC50 values, defined as 50 [drawing 161] inhibitory concentration, were calculated using a four-parameter logistic function and presented as mean±SD. All biological experiments were performed in triplicates. To evaluate the nature of the detected autophagy, a combined treatment with compound 3 and the autophagy inhibitors chloroquine (Chlq) and 3-methyladenine (3-MA) was carried out. […] After 72 h, cell viability was determined by CV assay.

[2] = system: HT29 cells; assay: MTT viability assay, HT29; type: cell-based, human; details: 72 h, mean±SD; read-out: IC50 [μM] (n = 3) HT29 MTT
Description: as §1, §2, §3, §4

[3] = system: HT29 cells; assay: Crystal violet (CV) viability assay, HT29; type: cell-based, human; details: 72 h, mean±SD; read-out: IC50 [μM] (n = 3) HT29 CV
Description: as §1, §2, §3, §4

[4] = system: MC38 cells; assay: PI staining of fixed cells, fluorescence microscopy; type: cell-based, murine; details: IC50 concentration, 72 h
Description: (§5) For morphological assessment of cell nuclei, MC38 cells were seeded overnight in 2-well chamber slides and then treated with the IC50 concentration of compound 3 for 72 h. At the end of the incubation period, cells were fixed with 4 [drawing 168] PFA for 15 min at RT. Staining of cells was performed with PI solution (0.1 [drawing 169] Triton X-100, 0.5 M EDTA pH 8, 50 μg mL^− 1 RNase, and 50 [drawing 170] mL^− 1 PI - final concentrations in PBS) for 1–2 min at RT. After washing in PBS, the cells were mounted in a fluorescence microscopy medium (Fluoromount- [drawing 171] , eBioscience, San Diego, CA, USA). The slides were analyzed with a ZeissAxio Observer Z1 inverted fluorescence microscope (Carl Zeiss AG, Oberkochen, Germany) at 400 [drawing 172] magnification. For the detection of autophagosomes, AO staining of cells seeded in 2-well chamber slides was applied. […] The dye was then removed, the cells were rinsed with PBS and immediately evaluated via fluorescence microscopy at 400 [drawing 175] magnification using the Leica DM4 B microscope equipped with a DFC7000 T camera (Leica Microsystems CMS GmbH, Wetzlar, Germany).

[5] = system: MC38 cells; assay: Acridine orange staining for autophagosomes; type: cell-based, murine; details: IC50 concentration, 72 h
Description: as §5

[6] = Stability in solution, air and moisture; details: storage

Substance: 1-[2-(7,8-dicarba-nido-undecaborate)]- [drawing 126] H-indolium-2-amine [compound 3]
- IC50 [1]: 7.9 ± 0.2 µM
- IC50 [2]: 17 ± 1.6 µM
- IC50 [3]: 17.6 ± 0.3 µM
- nuclear morphology (PI staining) [4]: moderate involvement of apoptotic cells
- autophagosomes in the cytoplasm (acridine orange) [5]: intensified presence of autophagosomes
- stability in air and moisture [6]: stable in air and moisture
